Source: ChEMBL document CHEMBL5528001, “Synthetic product-based approach toward potential antileishmanial drug development” (Eur J Med Chem, 2024)
≈ marks a conversion by molar mass, not a printed value.

Key:
Leishmania amazonensis [1] = assay: Antileishmanial activity against Leishmania amazonensis MHOM/BR/75/Josefa promastigotes assessed as reduction in parasite viability after 72 hrs by Neubauer chamber counting method; type: functional, organism-based
Leishmania amazonensis [2] = assay: Antileishmanial activity against Leishmania amazonensis promastigotes assessed as inhibition of parasite growth; type: functional; set-up: scale not given: the % may be the effect or the level left
Leishmania aethiopica = assay: Antileishmanial activity against Leishmania aethiopica amastigotes assessed as inhibition of parasite growth measured after 24 hrs by Alamar blue based analysis; type: functional, organism-based
Leishmania major [3] = assay: Antileishmanial activity against Leishmania major promastigotes assessed as reduction in parasite viability measured after 72 hrs by Giemsa-staining based microscopic analysis; type: functional, organism-based
[4] = Selectivity index, ratio of CC50 for human HepG2 cells to EC50 for GFP-expressing Leishmania infantum intracellular amastigotes infected in human THP-1 derived macrophage cells; type: toxicity, cell-based; details: read-out: Ratio CC50/EC50
Leishmania tropica = assay: Antileishmanial activity against Leishmania tropica promastigotes incubated for 24 hrs measured by alamar blue staining based fluorescence analysis; type: functional, organism-based
HepG2 = assay: Cytotoxicity against human HepG2 cells assessed as reduction in cell growth measured after 48 hrs by SRB assay; type: functional
Leishmania donovani [5] = assay: Antileishmanial activity against Leishmania donovani MHOM/IN/00/DEVI assessed as inhibition of parasite growth measured for 48 hrs by MTT assay; type: functional, organism-based
Leishmania donovani [6] = assay: Antileishmanial activity against Leishmania donovani promastigotes assessed as inhibition of parasite growth; type: functional, organism-based
Leishmania major [7] = assay: Antileishmanial activity against Leishmania major assessed as reduction in parasite growth; type: functional, organism-based
Leishmania donovani [8] = assay: Antileishmanial activity against Leishmania donovani amastigotes infected in J774.A1 macrophage assessed as inhibition of parasite growth by luciferase assay; type: functional, organism-based
Leishmania donovani [9] = assay: Antileishmanial activity against Leishmania donovani amastigotes infected in human THP-1 cells assessed as inhibition of parasite infection incubated for 72 hrs by DAPI staining based assay; type: functional, organism-based; details: THP-1, 72 h
Leishmania major [10] = assay: Antileishmanial activity against Leishmania major IR-173 promastigotes assessed as inhibition of parasite growth incubated for 48 hrs by resazurin dye based assay; type: functional, organism-based; details: IR-173, 48 h
Leishmania donovani [11] = assay: Antileishmanial activity against Leishmania donovani 9515 promastigotes assessed as inhibition of parasite growth incubated for 48 hrs by resazurin dye based assay; type: functional, organism-based; details: Leishmania donovani, 9515, 48 h
Leishmania donovani [12] = assay: Antileishmanial activity against Leishmania donovani MHOM/SD/62/1S assessed as inhibition of parasite growth by resazurin/alamar blue fluorometric assay; type: functional, organism-based
Leishmania donovani [13] = assay: Antileishmanial activity against Leishmania donovani MHOM/SD/62/1S-CL2D promastigotes assessed as reduction in parasite growth incubated for 24 hrs by resazurin dye based analysis; type: functional, organism-based
Leishmania donovani [14] = assay: Antileishmanial activity against Leishmania donovani promastigotes assessed as parasitic proliferation inhibition incubated for 3 days by resazurin dye based assay; type: functional, organism-based
NCI-H1299 = assay: Antiproliferative activity against human NCI-H1299 cells assessed as reduction in cell viability incubated for 48 hrs by MTT assay; type: functional, cell-based; details: NCI-H1299, 48 h
Leishmania major [15] = assay: Antileishmanial activity against Leishmania major MHOM/IL/80/Friendlin assessed as reduction in parasite growth incubated for 48 hrs by MTT assay; type: functional, organism-based
HT-29 = assay: Antiproliferative activity against human HT-29 cells assessed as reduction in cell viability incubated for 48 hrs by MTT assay; type: functional, cell-based; details: HT-29, 48 h
[16] = Antileishmanial activity against Leishmania infantum BCN-150 promastigotes assessed as reduction in parasite growth incubated for 48 hrs by MTT assay; type: functional
Leishmania donovani [17] = assay: Antileishmanial activity against Leishmania donovani MHOM/SD/62/1S amastigotes assessed as reduction in cell growth; type: functional, organism-based
Leishmania braziliensis [18] = assay: Antileishmanial activity against Leishmania braziliensis MHOM/BR/75/M2903 strain promastigotes assessed as reduction in cell viability incubated for 48 hrs by MTT assay; type: functional, organism-based; details: MHOM/BR/75/M2903, 48 h
Leishmania mexicana = assay: Antileishmanial activity against Leishmania mexicana promastigotes; type: functional, organism-based
Leishmania major [19] = assay: Antileishmanial activity against Leishmania major amastigotes assessed as reduction in parasite growth incubated for 48 hrs by resazurin dye based analysis; type: functional, organism-based
[20] = Cytotoxicity against African green monkey Vero cells assessed as reduction in cell growth; type: toxicity, cell-based, Chlorocebus sabaeus
Leishmania braziliensis [21] = assay: Antileishmanial activity against Leishmania braziliensis promastigotes; type: functional, organism-based
Leishmania donovani [22] = assay: Antileishmanial activity against Leishmania donovani amastigotes assessed as parasite growth inhibition incubated for 72 hrs by MTS assay; type: functional, organism-based
[23] = Cytotoxicity against HEK293 cells assessed as reduction in cell viability incubated for 6 days by CellTiter-Glo luminescent cell viability assay; type: toxicity, cell-based; details: human
Leishmania donovani [24] = assay: Antileishmanial activity against Leishmania donovani amastigotes; type: functional, organism-based
[25] = Leishmania donovani, 72 h, read-out: IC50

CN(C)c1ccc(-c2nc(C(=O)NCCCl)cc3c2[nH]c2ccccc23)cc1 showed an IC50 (Leishmania amazonensis [1]) of 16.8 µM.

In the case of C/C=C1\NC(=S)NC1=O, the Activity (Leishmania amazonensis [2]) is reported as 28%.

Compound Cc1ccc(-n2cc(C3=NCCS3)c(-c3ccccc3)n2)cc1 has an IC50 (Leishmania aethiopica) of 1.02 µg/mL (≈ 3.19 µM).

COC(=O)C1=C(C)NC(=S)NC1c1ccc(Cl)cc1 (stereo not drawn) showed an EC50 (Leishmania major [3]) of 15.5 µM.

In the case of Nc1ccn(C(=O)C2CCC3(CC2)OOC2(O3)C3CC4CC(C3)CC2C4)n1 (stereo not drawn), the selectivity ratio [4] is reported as < 5 and the IC50 (Leishmania tropica) is reported as 161 µM.

C(=N/CCCN(N1CCCCC1)N1CCCCC1)/c1cc(-c2ccccc2)c2ccc3c(-c4ccccc4)cc(/C=N/CCCN(N4CCCCC4)N4CCCCC4)nc3c2n1 showed a CC50 (HepG2) of 1.64 µM and an IC50 (Leishmania donovani [5]) of 2.52 µM.

Work on COc1ccc(Cn2c(C)cc(O)c(C(=O)Nc3ccc(C)cc3)c2=O)cc1 yielded an IC50 (Leishmania donovani [6]) of 55 µM.

In the case of CCCCCCCCCn1cc(CN2CCN(C(=O)c3c(C)nc4ccc(C)cn34)CC2)nn1, the IC50 (Leishmania major [7]) is reported as 15.1 µM.

With CC(C)CC1NC(=S)NC1=O (stereo not drawn) the Activity (Leishmania amazonensis [2]) was 32%.

For CCCC(=O)N1N=C(c2ccccc2)CC1c1cn(-c2ccc(Cl)cc2)nc1-c1ccccc1 (stereo not drawn), the IC50 (Leishmania donovani [8]) was 0.89 µM and the IC50 (Leishmania donovani [9]) was 1.45 µM.

In the case of O=C(N/N=C/c1ccc([N+](=O)[O-])o1)c1ccc(OCc2ccccc2)cc1, the IC50 (Leishmania major [10]) is reported as 38.5 µM, the IC50 (Leishmania donovani [11]) is reported as 4.48 µM and the IC50 (Leishmania donovani [12]) is reported as 4.53 µM.

Work on CN(C)c1ccc(-c2nc(C3=NCCO3)cc3c2[nH]c2ccccc23)cc1 yielded an IC50 (Leishmania amazonensis [1]) of 6.1 µM.

Work on CCCCCCCCCCCCCCCC(=O)CC(=O)N1CCC[C@H]1COP(=O)([O-])OCC[N+](C)(C)C yielded an IC50 (Leishmania donovani [13]) of 52.6 µM.

In the case of C(=N/CCCN(N1CCOCC1)N1CCOCC1)/c1cc(-c2ccccc2)c2ccc3c(-c4ccccc4)cc(/C=N/CCCN(N4CCOCC4)N4CCOCC4)nc3c2n1, the CC50 (HepG2) is reported as 1.64 µM and the IC50 (Leishmania donovani [5]) is reported as 2.52 µM.

Work on CCOC(=O)C1=CNC(=S)NC1c1ccc(Cl)cc1 (stereo not drawn) yielded an IC50 (Leishmania donovani [14]; [25]) of 29.3 µg/mL (≈ 98.7 µM).

For N#C[Se]/C=C/c1ccccc1, the IC50 (NCI-H1299) was 11.9 µM, the IC50 (Leishmania major [15]) was 3.3 µM and the IC50 (HT-29) was 11.9 µM. The IC50 [16] was 3.7 µM.

In the case of Cc1ccc2c(NCCCCCNC(=O)c3cccc(/C=C/C(=O)c4ccc(C)o4)c3)ccnc2c1, the IC50 (Leishmania donovani [17]) is reported as 0.46 µM.

COc1ccc(-n2cc(CCC(=O)OC3=C(C=C(C)C)C(=O)c4ccccc4C3=O)nn2)cc1 gave an IC50 (Leishmania braziliensis [18]) of 15.9 µM.

Work on COc1cc(C(=O)/C=C/c2cccc([N+](=O)[O-])c2)ccc1OCC=C(C)C yielded an IC50 (Leishmania mexicana) of 4.57 µM.

C(=N/CCCN(c1cccnc1)c1cccnc1)/c1cc(-c2ccccc2)c2ccc3c(-c4ccccc4)cc(/C=N/CCCN(c4cccnc4)c4cccnc4)nc3c2n1 showed a CC50 (HepG2) of 1.64 µM and an IC50 (Leishmania donovani [5]) of 2.52 µM.

Work on N#C[Se]c1ccc2c(c1)OCO2 yielded an IC50 (NCI-H1299) of 82.5 µM, an IC50 (Leishmania major [15]) of 4.6 µM and an IC50 (HT-29) of 61.2 µM. The IC50 [16] was 3.3 µM.

Work on Cc1ccc(-n2cc(C3N[C@H](C(N)=O)CS3)c(-c3ccccc3)n2)cc1 (stereo partly drawn) yielded an IC50 (Leishmania aethiopica) of 1.02 µg/mL (≈ 2.8 µM).

In the case of CC(C)c1ccc(COc2ccc(C(=O)N/N=C\c3ccc([N+](=O)[O-])o3)cc2)cc1, the IC50 (Leishmania major [19]) is reported as 0.62 µM.

C(=N/CCCN(c1ccncc1)c1ccncc1)/c1cc(-c2ccccc2)c2ccc3c(-c4ccccc4)cc(/C=N/CCCN(c4ccncc4)c4ccncc4)nc3c2n1 gave a CC50 (HepG2) of 1.64 µM and an IC50 (Leishmania donovani [5]) of 2.52 µM.

Cc1ccc2nc(C)c(C(=O)N3CCN(Cc4cn(-c5ccc(C(C)(C)C)cc5)nn4)CC3)n2c1 gave an IC50 (Leishmania major [7]) of 15.1 µM.

Work on CC(=O)N1N=C(c2ccccc2)CC1c1cn(-c2ccc(C)cc2)nc1-c1ccccc1 (stereo not drawn) yielded an IC50 (Leishmania donovani [8]) of 0.05 µM and an IC50 (Leishmania donovani [9]) of 1 µM.

Work on Cc1cc(OCCCCNC(C)(C)C)cc2oc3cc(OCCCCNC(C)(C)C)cc(O)c3c(=O)c12 yielded an IC50 [20] of 15.5 µM and an IC50 (Leishmania braziliensis [21]) of 0.1 µM.

For CCCCCCCn1cc(CN2C(=O)CN(/N=C/c3ccc([N+](=O)[O-])o3)C2=O)nn1, the IC50 (Leishmania donovani [22]) was 0.18 µM, the IC50 at 6 days [23] was > 100 µM and the IC50 (Leishmania donovani [24]) was 0.38 µM.

For CCOC(=O)C1=CNC(=O)NC1c1ccc(C)cc1 (stereo in doubt; 80), the IC50 (Leishmania donovani [14]; [25]) was 29.3 µg/mL (≈ 113 µM).

CCOC(=O)C1=CNC(=O)NC1c1ccc(C)cc1 (stereo in doubt; 82) showed an IC50 (Leishmania donovani [14]) of 28.3 µg/mL (≈ 109 µM).
